Laboratory results as given in paper PMC12455390, “Three Is Better than One: A Multimetal Complex that Triggers Immunogenic Cell Death” (Angewandte Chemie (International Ed. in English), 2025).
Like-named read-outs stand apart in the source and are kept apart here.

Tests used:
[1] = tested on: CT26 challenge model; test: In vivo CT26 vaccination/challenge model; set-up: species or system BALB/c mice; details: mice vaccinated with CT26 cells pretreated 24 h at IC50, challenged after 7 days
Protocol: Induction of an immunogenic response in vivo was determined using the established preclinical CT26 challenge model depicted in Figure 8a.^[ [33] ^] […] After 7 days, the mice were challenged with 5 x 10^5 naive CT26 cells injected into the left flank (challenge flank). Mice were monitored thereafter to assess the level, if any, of tumor development on the challenge (left) side. Monitoring was continued for 28 days. […] These are animals in which ICD induction was not expected. Tumor free survival was seen up to day 14 and up to day 21 in the doxorubicin and 1 + Oxa + 2 groups, respectively.
After 7 days, mice were inoculated s.c. with 5 x 10^5 naive CT26 cancer cells into the contralateral flank. Prior to all injections, the supernatant of one flask per harvest day was tested for mycoplasma contamination (MycoAlert™, Lonza, Rockland, ME), which yielded negative results on all days. Body weights and tumor measurements were checked daily, and tumor development was compared among groups.

[2] = tested on: white blood cells; test: Total and differential WBC manual count in challenge study; format: in vivo, BALB/c mice; details: mice injected with pretreated CT26 cells
Excerpt: To test this proposition, whole blood samples were collected from mice before vaccination (day ‐7), before challenge (day 0), and 7 days after challenge (day 7) as outlined in Figure 8a. The samples were subjected to a manual count of total white blood cell (WBC) using Tuerk staining and differential leukocytes (monocytes, lymphocytes, neutrophils, eosinophils, and basophils) using Wright staining (see Supporting Information). The results are summarized in Figure 8c as total WBC per µL (Figure 8c), differential percentages of monocytes (Figure 8d), and lymphocytes (Figure 8e) corresponding to an innate and adaptive immune response, respectively. The neutrophil, eosinophil, and basophil levels remained unchanged. […]
Blood samples were collected from all mice groups by tail vein and were analyzed for total WBC count and differential count.^9 Blood was draw on Day -7 (before vaccination), Day 0 (before rechallenge) and Day 7. Total WBC was analyzed by adding 2 µL of blood to 38 µL Tuerk solution (Sigma-Aldrich product - 93770) and was counted using a hemocytometer after 45 min under a 10x light microscope. […] 200 WBC cells were counted and classified under 1000x magnification using a Leica DMI6000b microscope.

[3] = tested on: CT26 colorectal cancer model; details: CT26 tumors in BALB/c mice, i.p. on days 8, 10, 12 & 14, day 16, doxorubicin 2 mg/kg, mixture 5.7 + 4 + 12 mg/kg, complex 5 21 mg/kg
Protocol: The experimental protocol consisted of inoculating mice with 1.5 x 10^6 CT26 cells on day 0. When the tumors became palpable, a series of four intraperitoneal (i.p.) injections were carried out on days 8, 10, 12, & 14. On day 16 mice (n = 5) were euthanized and organs including tumors (Figure S37) were collected and analyzed for their metal content via ICP‐MS (Figure 6a). The doxorubicin dosage was based on a previous report.^[ [32] ^]
Procedures were conducted in accordance with the Guide for the Care and Use of Laboratory Animals (U.S. Public Health Service, National Institute of Health) and the protocol for this experiment was approved by the Institutional Animal Care and Use Committee (IACUC, protocol numbers AUP-2022-00101 & AUP-2024-00337) at The University of Texas at Austin. Briefly, 6-8 weeks female BALB/c mice were acclimatized for 7 days thereafter, murine colon carcinoma cells, CT26 (1.5 x 10^6 cells in 100 μL of sterile PBS) were subcutaneously injected to the right flank. The experiments were initiated once tumors became palpable on Day 8. […] The animals were monitored for the development of pain or distress symptoms with the body weight and tumor size also being closely monitored. […] On day 16, mice were euthanized, and tumor and organs (liver, kidney, spleen, heart and lungs) were collected for ICP-MS metal quantification.

For `COc1cccc2c1C(=O)c1c(O)c3c(c(O)c1C2=O)C[C@@](O)(C(=O)CO)C[C@@H]3O[C@H]1C[C@H](N)[C@H](O)[C@H](C)O1` [Doxorubicin, doxorubicin, reference compound], the “tumor free survival up to day” value [1] was no more than 14 days, the “total WBC count” value ([2]; day 0, trends retained through day 7) was “significant reduction in total WBC count” and the “differential monocyte and lymphocyte percentages” value ([2]; days 0 and 7) was “transient increase in lymphocyte percentages”. For the same compound, the “Inhibition of Tumor Growth” value [3] was 40.8% and the “Inhibition of Tumor Growth” value ([3]; listed as doxorubicin) was roughly 40%.
